Test results taken from US6235493A, “Amino acid substituted-cresyl violet, synthetic fluorogenic substrates for the analysis of agents in individual in vivo cells or tissue” (priority 1998, dated 2001).

Legend:
cathepsin B [1] = target: T1, cathepsin B (Rattus norvegicus, UniProt P00787); assay: Cathepsin B activity in living CC531 colon cancer cells (CSLM, (Z-Arg)^2 -cresyl violet); format: cell-based; conditions: living CC531 cells, 10 μM substrate (printed μm), 5 min, PBS
Experimental: An established rat colon carcinoma cell line, CC531, was used for all experiments. The parental cell line was obtained from a 1,2-dimethylhydrazine-induced moderately differentiated and weakly immunogenic colon adenocarcinoma in WAG-Rij rats (44). Cells were cultured in vitro at 37° C. as monolayers in Dulbecco's modification of Eagle's medium (ICN Biomedicals, Irvine, Ayrshire, UK) supplemented with 10% (w/v) fetal bovine serum, 2 mM glutamine, 100 IU penicillin/ml and 100 μg streptomycin/ml. Cells were washed in PBS and, after detachment by scraping and centrifugation (250 g, room temperature, 10 min), a single cell suspension at a final concentration of 1×10^6 cancer cells in 50 μl of PBS was obtained with a viability of at least 95% (45,46). Cell suspension were either used for cytochemical purposes or for in vivo administration to induce metastases in the liver.
(§1) Cathepsin B activity was detected in real-time in living CC531 cells and freshly prepared living rat hepatocytes after isolation by collagenase perfusion of livers of male mature rats after 24 h of starvation (47). At time point zero, cell preparations were diluted 20-fold in PBS containing either 10 μM (Z-Arg)^2 -cresyl violet (Enzyme Systems Products, Dublin, Calif.) as fluorogenic substrate for cathepsin B (48) or 10 μM substrate and 20 μM FMK (Protek, Dublin, Calif.), as selective cathepsin B inhibitor (40,41). The fluorogenic substrate is not fluorescent but after proteolytic cleavage, liberated cresyl violet is fluorescent. Synthesis of the substrate is described elsewhere in Ref. 48. The substrate was dissolved first in dimethyl formamide (final concentration in the incubation medium was 1% (v/v)). An aliquot of 100 μl of the cell suspensions was brought into a well formed by a stainless steel ring attached to a glass slide (49). Images of cells were captured in real-time with a Leica CSLM fitted to a Leica Fluovert inverted microscopic equipped with a PL APO oil-immersion objective (×63, NA 1.40). Excitation was performed at a wavelength of 560 nm and fluorescence was captured at greater than 580 nm. Excitation with the use of green light is harmless to living cells. The pinhole aperture was set at 100 giving an optimized image (50). With fixed pinhole, filter combination and a laser power setting adjusted to give minimal fading, the photomultiplier gain and photometric offset were optimized. Cells were subjected to optical serial sectioning after each 60 s of incubation up to 300 s. Images in the X-Y plane were recorded with intervals of 0.5 μm in the Z direction. For analysis, each optical section was averaged eight times. Images were recorded in a 512×512 pixel format. The size of each pixel represented 0.015 μm^2 in the object. […]

cathepsin B [2] = target: T1, cathepsin B; assay: Cathepsin B activity in living rat hepatocytes (CSLM, (Z-Arg)^2 -cresyl violet); format: cell-based; conditions: living rat hepatocyte, 10 μM substrate (printed μm), 5 min, PBS
Experimental: as §1, with “Excitation with the use of green light is harmless to living cells. The pinhole aperture was set at 100 giving an optimized image (50). With fixed pinhole, filter combination and a laser power setting adjusted to give minimal fading, the photomultiplier gain and photometric offset were optimized. Cells were subjected to optical serial sectioning after each 60 s of incubation up to 300 s.” left out, “For analysis, each optical section was averaged eight times.” left out, “format.” for “format. The size of each pixel represented 0.015 μm^2 in the object.”

[3] = tested on: living hepatocytes and colon cancer cells; assay: Penetration of cresyl violet-based substrates into living cells; format: cell-based, rat
Experimental: Cathepsin B activity was detected in real-time in living CC531 cells and freshly prepared living rat hepatocytes after isolation by collagenase perfusion of livers of male mature rats after 24 h of starvation (47). At time point zero, cell preparations were diluted 20-fold in PBS containing either 10 μM (Z-Arg)^2 -cresyl violet (Enzyme Systems Products, Dublin, Calif.) as fluorogenic substrate for cathepsin B (48) or 10 μM substrate and 20 μM FMK (Protek, Dublin, Calif.), as selective cathepsin B inhibitor (40,41). The fluorogenic substrate is not fluorescent but after proteolytic cleavage, liberated cresyl violet is fluorescent. Synthesis of the substrate is described elsewhere in Ref. 48. The substrate was dissolved first in dimethyl formamide (final concentration in the incubation medium was 1% (v/v)). An aliquot of 100 μl of the cell suspensions was brought into a well formed by a stainless steel ring attached to a glass slide (49). […] Excitation was performed at a wavelength of 560 nm and fluorescence was captured at greater than 580 nm. […] Images in the X-Y plane were recorded with intervals of 0.5 μm in the Z direction. […] Images were recorded in a 512×512 pixel format. […]
The localization properties of cresyl violet in individual cells were investigated using confocal microscopy. […] The fluorescence is localized only in patches at the plasma membrane. […]

T1 sequence (P00787 80-333): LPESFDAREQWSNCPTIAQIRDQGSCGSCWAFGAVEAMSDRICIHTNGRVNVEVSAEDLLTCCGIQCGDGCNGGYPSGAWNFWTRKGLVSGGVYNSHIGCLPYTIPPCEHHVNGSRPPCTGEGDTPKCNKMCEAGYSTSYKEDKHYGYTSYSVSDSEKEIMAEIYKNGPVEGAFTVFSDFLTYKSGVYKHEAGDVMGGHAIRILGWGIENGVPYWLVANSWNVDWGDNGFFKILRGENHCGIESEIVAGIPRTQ

Structure (SMILES): N=C(N)NCCC[C@H](NC(=O)OCc1ccccc1)C(=O)NC1=CC2Oc3cc(NC(=O)[C@H](CCCNC(=N)N)NC(=O)OCc4ccccc4)ccc3N=C2c2ccccc21 (stereo partly drawn) [[Z-Arg]^2-cresyl violet]
- localization of cathepsin B activity (cresyl violet fluorescence) (cathepsin B [1]): found at the plasma membrane (large arrowheads) and intracellularly
- localization of cathepsin B activity (cresyl violet fluorescence) (cathepsin B [2]): present in granular lysosome-like intracellular compartments
- cell penetration [3]: penetrate living cells
